In this assay the target is T1, human parathyroid cell Ca2+ receptor (hPCaR) (Homo sapiens, UniProt P41180).
T1 construct: expressed in transfected cells
T1 sequence (P41180 20-1078): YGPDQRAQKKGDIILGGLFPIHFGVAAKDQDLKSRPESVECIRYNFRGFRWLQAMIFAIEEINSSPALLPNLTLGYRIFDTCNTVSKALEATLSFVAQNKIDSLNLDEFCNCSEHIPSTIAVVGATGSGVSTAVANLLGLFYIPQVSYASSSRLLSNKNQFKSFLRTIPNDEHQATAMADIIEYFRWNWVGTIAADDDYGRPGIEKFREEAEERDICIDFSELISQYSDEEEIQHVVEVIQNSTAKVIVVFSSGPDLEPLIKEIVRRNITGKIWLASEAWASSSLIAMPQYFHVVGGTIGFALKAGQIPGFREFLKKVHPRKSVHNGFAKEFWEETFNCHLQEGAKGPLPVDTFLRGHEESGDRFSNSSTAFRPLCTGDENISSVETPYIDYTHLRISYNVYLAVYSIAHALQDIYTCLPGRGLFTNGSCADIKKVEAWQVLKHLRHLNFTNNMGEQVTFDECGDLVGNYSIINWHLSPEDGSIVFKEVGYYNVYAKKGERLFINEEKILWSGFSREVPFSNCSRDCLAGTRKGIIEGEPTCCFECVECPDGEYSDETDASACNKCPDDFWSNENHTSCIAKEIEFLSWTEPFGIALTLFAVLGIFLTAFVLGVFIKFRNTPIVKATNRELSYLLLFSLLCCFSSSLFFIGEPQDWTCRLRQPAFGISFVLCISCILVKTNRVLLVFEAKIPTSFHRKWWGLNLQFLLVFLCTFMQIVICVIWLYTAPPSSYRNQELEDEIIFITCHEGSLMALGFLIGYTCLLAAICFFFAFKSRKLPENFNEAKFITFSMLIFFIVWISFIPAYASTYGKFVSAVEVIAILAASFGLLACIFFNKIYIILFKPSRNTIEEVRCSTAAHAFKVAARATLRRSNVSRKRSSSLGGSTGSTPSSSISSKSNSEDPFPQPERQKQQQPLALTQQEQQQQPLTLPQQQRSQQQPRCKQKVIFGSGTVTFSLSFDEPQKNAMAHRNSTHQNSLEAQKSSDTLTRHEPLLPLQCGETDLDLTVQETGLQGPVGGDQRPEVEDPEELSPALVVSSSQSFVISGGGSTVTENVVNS
The assay can be described thus: [Ca2+]i fluorescence assay in HEK 293 4.0-7 cells expressing hPCaR. It counts as cell-based. Conditions: buffer with 1 mM CaCl2. In short, it runs like this:
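HEK 293 clone 4.0-7 stably expressing human parathyroid Ca2+ receptor, seeded overnight, then loaded 90 min at room temperature with calcium dye in parathyroid cell buffer (pH 7.45) with 0.5% BSA and 1 mM CaCl2. Fluorescence after compound addition read at ex 485/em 530 nm.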
Usually EC50 stands for the concentration giving half of the maximal effect. A low value points to a more potent agent. `CS(=O)(=O)NCCN(CCC(c1ccccc1)c1ccccc1)C(=O)Nc1nc2ccccc2s1` [Example 167, N-{2-[3-Benzothiazol-2-yl-1-(3,3-diphenyl-propyl)-ureido]-ethyl}-methanesulfonamide] showed an EC50 of 100 to 1000 nM.
With `O=C(O)CCN(CCC(c1ccccc1)c1ccccc1)C(=O)Nc1nc(-c2ccccc2)cs1` [Example 126, 3-(1-(3,3-diphenylpropyl)-3-(4-phenylthiazol-2-yl)ureido)propanoic acid] the figure was 1000 to 5000 nM; with `CS(=O)(=O)Nc1ccc(-c2nc(NC(=O)N(CCCO)CCC(c3ccccc3)c3ccccc3)sc2Cl)cc1` [Example 134, 3-(5-chloro-4-(4-(methylsulfonamido)phenyl)thiazol-2-yl)-1-(3,3-diphenylpropyl)-1-(3-hydroxypropyl)urea], under 100 nM; with `C[C@H]1CN(C(=O)CCCN(CCC(c2ccccc2)c2ccccc2)C(=O)Nc2nc(-c3ccccc3)cs2)CCN1` [Example 90, (S)-1-(3,3-diphenylpropyl)-1-(4-(3-methylpiperazin-1-yl)-4-oxobutyl)-3-(4-phenylthiazol-2-yl)urea], 100 to 1000 nM.
The value for `O=C(O)CCCN(CCC(c1ccccc1)c1ccccc1)C(=O)Nc1nc(-c2ccccc2)cs1` [Example 111, 4-(1-(3,3-diphenylpropyl)-3-(4-phenylthiazol-2-yl)ureido)butanoic acid] was 100 to 1000 nM.
With `CS(=O)(=O)Nc1ccc(-c2nc(NC(=O)N(CCOC(N)=O)CCC(c3ccccc3)c3ccccc3)sc2Cl)cc1` [Example 132, 2-(3-(5-chloro-4-(4-(methylsulfonamido)phenyl)thiazol-2-yl)-1-(3,3-diphenylpropyl)ureido)ethyl carbamate] the figure was under 100 nM; with `CS(=O)(=O)Nc1ccc(-c2nc(NC(=O)N(CCNC(=O)C3CCCNC3)CCC(c3ccccc3)c3ccccc3)sc2Cl)cc1` (stereo not shown) [Example 131, 3-(5-chloro-4-(4-(methylsulfonamido)phenyl)thiazol-2-yl)-1-(3,3-diphenylpropyl)-1-(2-(piperidine-3-carboxamido)ethyl)urea], under 100 nM.
In the case of `O=C(CCCN(CCC(c1ccccc1)c1ccccc1)C(=O)Nc1nc2ccccc2s1)NC1CCNCC1` [Example 75, 3-(benzo[d]thiazol-2-yl)-1-(3,3-diphenylpropyl)-1-(4-oxo-4-(piperidin-4-ylamino)butyl)urea], the EC50 was under 100 nM.
On to `CN(C)C(=O)CCN(CCC(c1ccccc1)c1ccccc1)C(=O)Nc1nc2ccccc2s1` [Example 107, 3-(benzo[d]thiazol-2-yl)-1-(3-(dimethylamino)-3-oxopropyl)-1-(3,3-diphenylpropyl)urea], for which the concentration for a half-maximal effect (EC50) lay within 100 to 1000 nM.
The value for `O=C(Nc1nc2ccccc2s1)N(CCNCC1CCN(C(=O)OCc2ccccc2)CC1)CCC(c1ccccc1)c1ccccc1` [Example 149, 4-({2-[3-Benzothiazol-2-yl-1-(3,3-diphenyl-propyl)-ureido]-ethylamino}-methyl)piperidine-1-carboxylic acid benzyl ester] was 100 to 1000 nM; that for `O=C(CCCN(CCC(c1ccccc1)c1ccccc1)C(=O)Nc1nc(-c2ccccc2)cs1)N[C@@H]1CCCNC1` [Example 76, (R)-1-(3,3-diphenylpropyl)-1-(4-oxo-4-(piperidin-3-ylamino)butyl)-3-(4-phenylthiazol-2-yl)urea] was under 100 nM.
The value for `O=C(O)CCN(CCC(c1ccccc1)c1ccccc1)C(=O)Nc1nc(-c2ccccc2)c(Cl)s1` [Example 121, 3-(3-(5-chloro-4-phenylthiazol-2-yl)-1-(3,3-diphenylpropyl)ureido)propanoic acid] was 1000 to 5000 nM; that for `NC(=O)CCN(CCC(c1ccccc1)c1ccccc1)C(=O)Nc1nc(-c2ccccc2)c(Cl)s1` [Example 110, 1-(3-amino-3-oxopropyl)-3-(5-chloro-4-phenylthiazol-2-yl)-1-(3,3-diphenylpropyl)urea] was 100 to 1000 nM.
The value for `CS(=O)(=O)Nc1ccc(-c2nc(NC(=O)N(CCN[C@@H]3CCCNC3)CCC(c3ccccc3)c3ccccc3)sc2Cl)cc1` [Example 140, (R)-3-(5-chloro-4-(4-(methylsulfonamido)phenyl)thiazol-2-yl)-1-(3,3-diphenylpropyl)-1-(2-(piperidin-3-ylamino)ethyl)urea] was under 100 nM; that for `CCOC(=O)CNCCN(CCC(c1ccccc1)c1ccccc1)C(=O)Nc1nc2ccccc2s1` [Example 151, {2-[3-Benzothiazol-2-yl-1-(3,3-diphenyl-propyl)-ureido]-ethylamino}-acetic acid ethyl ester] was 100 to 1000 nM.
Turning to `O=C(CCCN(CCC(c1ccccc1)c1ccccc1)C(=O)Nc1nc(-c2ccccc2)cs1)N[C@H]1CCCNC1` [Example 78, (S)-1-(3,3-diphenylpropyl)-1-(4-oxo-4-(piperidin-3-ylamino)butyl)-3-(4-phenylthiazol-2-yl)urea], the EC50 is under 100 nM.
With `O=C(O)CCCN(CCC(c1ccccc1)c1ccccc1)C(=O)Nc1nc(-c2ccccc2)c(Cl)s1` [Example 83, 4-(3-(5-chloro-4-phenylthiazol-2-yl)-1-(3,3-diphenylpropyl)ureido)butanoic acid] the figure was under 100 nM; with `CS(=O)(=O)c1ccc(-c2csc(NC(=O)N(CCCC(=O)O)CCC(c3ccccc3)c3ccccc3)n2)cc1` [Example 79, 4-(1-(3,3-diphenylpropyl)-3-(4-(4-(methylsulfonyl)phenyl)thiazol-2-yl)ureido)butanoic acid], under 100 nM; with `O=C(CCN(CCC(c1ccccc1)c1ccccc1)C(=O)Nc1nc(-c2ccccc2)cs1)N[C@@H]1CCCNC1` [Example 102, (R)-1-(3,3-diphenylpropyl)-1-(3-oxo-3-(piperidin-3-ylamino)propyl)-3-(4-phenylthiazol-2-yl)urea], 100 to 1000 nM.
Regarding `O=C1CC[C@H](NCCN(CCC(c2ccccc2)c2ccccc2)C(=O)Nc2nc(-c3ccccc3)c(Cl)s2)CN1` [Example 142, (S)-3-(5-chloro-4-phenylthiazol-2-yl)-1-(3,3-diphenylpropyl)-1-(2-(6-oxopiperidin-3-ylamino)ethyl)urea], the half-maximal effective concentration (EC50) was under 100 nM.
The value for `O=C(O)CCCN(CCC(c1ccccc1)c1ccccc1)C(=O)Nc1nc2ccccc2s1` [Example 104, 4-(3-(benzo[d]thiazol-2-yl)-1-(3,3-diphenylpropyl)ureido)butanoic acid] was 100 to 1000 nM; that for `CS(=O)(=O)Nc1ccc(-c2csc(NC(=O)N(CCCC(=O)N[C@@H]3CCCNC3)CCC(c3ccccc3)c3ccccc3)n2)cc1` [Example 67, (R)-1-(3,3-diphenylpropyl)-3-(4-(4-(methylsulfonamido)phenyl)thiazol-2-yl)-1-(4-oxo-4-(piperidin-3-ylamino)butyl)urea] was under 100 nM; that for `C[C@H]1CN(C(=O)CCN(CCC(c2ccccc2)c2ccccc2)C(=O)Nc2nc3ccccc3s2)CCN1` [Example 115, (S)-3-(benzo[d]thiazol-2-yl)-1-(3,3-diphenylpropyl)-1-(3-(3-methylpiperazin-1-yl)-3-oxopropyl)urea] was 100 to 1000 nM.
In turn, `CC1OCCC1NCCN(CCC(c1ccccc1)c1ccccc1)C(=O)Nc1nc2ccccc2s1` (stereo not shown) [Example 157, 3-Benzothiazol-2-yl-1-(3,3-diphenyl-propyl)-1-[2-(2-methyl-tetrahydro-furan-3-ylamino)-ethyl]-urea] showed a concentration for a half-maximal effect (EC50) of under 100 nM.
Compound `CC(C)(C)OC(=O)NCCN(CCC(c1ccccc1)c1ccccc1)C(=O)Nc1nc2ccccc2s1` [Example 148, {2-[3-Benzothiazol-2-yl-1-(3,3-diphenyl-propyl)-ureido]-ethyl}-carbamic acid tert-butyl ester] registered an EC50 of 100 to 1000 nM.
The value for `NC(=O)CCCN(CCC(c1ccccc1)c1ccccc1)C(=O)Nc1nc2ccccc2s1` [Example 80, 1-(4-amino-4-oxobutyl)-3-(benzo[d]thiazol-2-yl)-1-(3,3-diphenylpropyl)urea] was under 100 nM; that for `O=C(CCCN(CCC(c1ccccc1)c1ccccc1)C(=O)Nc1nc2ccccc2s1)N[C@H]1CCCNC1` [Example 74, (S)-3-(benzo[d]thiazol-2-yl)-1-(3,3-diphenylpropyl)-1-(4-oxo-4-(piperidin-3-ylamino)butyl)urea] was under 100 nM; that for `CC(C)(C)OC(=O)CN1CCC(NCCN(CCC(c2ccccc2)c2ccccc2)C(=O)Nc2nc3ccccc3s2)CC1` [Example 158, (4-{2-[3-Benzothiazol-2-yl-1-(3,3-diphenyl-propyl)-ureido]-ethylamino}-piperidin-1-yl)acetic acid tert-butyl ester] was 100 to 1000 nM.
